From patent publication US8017597B2, “Analgesic agent comprising cyclic phosphatidic acid derivative” (Ochanomizu University, priority 2006, dated 2011)
“Also recorded” adds a separate entry of the source. Where two headings read alike, the source gives them in different places.

What was measured:
anesthetized cats = details: cited from earlier work
[1] = Arterial blood pressure after i.v. cPA administration; assay type: in vivo, rat
Excerpt: The right femoral artery was cannulated. Arterial blood pressure was continuously recorded from the intra-arterial cannula using a pressure transducer (TP-400T, Nihon Kohden, Tokyo).

anesthetized rats [2] = test: Heart rate increase reaction induced by frequent electrical stimulation of hindlimb afferent nerves, i.v. administration; assay type: in vivo, rat; details: for suppressive effect on heart rate increase: anesthetized rats, i.v., electrical stimulation of lower extremity nerves
Excerpt: Among (1) “heart rate increase reaction induced by frequent electrical stimulation of hindlimb afferent nerves” employed herein is not induced by weak stimulation intensity (0.2 V) that excites only thick medullated A-fibers, but induced by stimulation intensity (1 V) that is the same or higher than the excitation threshold of thin medullated A-fibers. When the stimulation intensity is further increased (10 V) so as to cause excitation of nonmedullated C fibers, the amplification of the heart rate increase reaction is increased to reach the maximum level (Sato et al, J Auton Nery Syst 4: 231, 1981; Uchida et al, Neurosci Left 269: 161, 1999). Noxious information is transmitted by A-fibers and C fibers. Therefore, such heart rate increase reaction induced by excitation of somatic afferent A-fibers and C fibers can be an indicator for evaluation of analgesic effects.
Blood pressure waveform was collected using a pulse rate tachometer (AT601-O, Nihon Kohden) and the heart rate was recorded continuously.

[3] = tested on: DNA polymerase α of eukaryotic cells; details: cited from earlier work
DNA polymerase α of eukaryotic cells, sequence (P09884 whole entry): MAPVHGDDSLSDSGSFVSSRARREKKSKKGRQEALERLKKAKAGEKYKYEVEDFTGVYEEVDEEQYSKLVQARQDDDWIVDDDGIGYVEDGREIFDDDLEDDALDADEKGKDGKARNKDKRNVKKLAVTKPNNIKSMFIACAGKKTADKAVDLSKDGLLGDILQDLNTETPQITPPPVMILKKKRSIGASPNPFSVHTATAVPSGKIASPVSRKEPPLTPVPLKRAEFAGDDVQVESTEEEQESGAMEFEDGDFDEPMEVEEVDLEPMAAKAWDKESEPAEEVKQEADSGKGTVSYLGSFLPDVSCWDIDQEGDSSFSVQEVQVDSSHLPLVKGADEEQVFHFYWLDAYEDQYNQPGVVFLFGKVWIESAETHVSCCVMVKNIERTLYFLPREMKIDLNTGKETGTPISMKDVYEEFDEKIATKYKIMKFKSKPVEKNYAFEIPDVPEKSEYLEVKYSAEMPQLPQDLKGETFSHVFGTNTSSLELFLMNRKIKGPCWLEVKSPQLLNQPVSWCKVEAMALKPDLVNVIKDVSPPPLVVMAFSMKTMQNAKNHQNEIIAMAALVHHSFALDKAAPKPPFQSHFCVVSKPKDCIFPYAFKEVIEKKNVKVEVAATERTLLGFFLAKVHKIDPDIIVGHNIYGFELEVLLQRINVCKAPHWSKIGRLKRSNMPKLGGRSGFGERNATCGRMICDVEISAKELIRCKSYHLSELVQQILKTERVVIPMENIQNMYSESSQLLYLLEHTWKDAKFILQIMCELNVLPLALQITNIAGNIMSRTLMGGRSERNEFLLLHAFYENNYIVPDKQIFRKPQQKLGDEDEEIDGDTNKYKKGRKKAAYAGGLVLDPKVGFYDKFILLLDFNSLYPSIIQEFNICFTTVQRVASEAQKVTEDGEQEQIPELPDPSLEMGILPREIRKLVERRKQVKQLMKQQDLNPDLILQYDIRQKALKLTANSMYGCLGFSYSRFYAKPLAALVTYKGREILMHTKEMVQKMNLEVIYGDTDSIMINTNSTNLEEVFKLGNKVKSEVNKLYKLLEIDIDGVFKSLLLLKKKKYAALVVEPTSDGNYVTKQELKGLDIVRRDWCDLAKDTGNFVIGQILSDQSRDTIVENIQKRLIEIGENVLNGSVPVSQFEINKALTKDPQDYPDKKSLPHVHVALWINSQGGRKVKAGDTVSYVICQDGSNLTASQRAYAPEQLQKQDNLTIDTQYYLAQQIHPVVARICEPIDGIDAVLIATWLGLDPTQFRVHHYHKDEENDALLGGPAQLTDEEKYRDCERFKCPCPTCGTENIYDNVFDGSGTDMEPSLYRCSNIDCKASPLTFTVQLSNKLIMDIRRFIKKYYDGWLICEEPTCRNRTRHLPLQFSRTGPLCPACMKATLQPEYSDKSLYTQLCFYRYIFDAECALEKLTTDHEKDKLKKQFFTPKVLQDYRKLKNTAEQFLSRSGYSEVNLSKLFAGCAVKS
DNA polymerase α of eukaryotic cells, sequence (Q14181 whole entry partner): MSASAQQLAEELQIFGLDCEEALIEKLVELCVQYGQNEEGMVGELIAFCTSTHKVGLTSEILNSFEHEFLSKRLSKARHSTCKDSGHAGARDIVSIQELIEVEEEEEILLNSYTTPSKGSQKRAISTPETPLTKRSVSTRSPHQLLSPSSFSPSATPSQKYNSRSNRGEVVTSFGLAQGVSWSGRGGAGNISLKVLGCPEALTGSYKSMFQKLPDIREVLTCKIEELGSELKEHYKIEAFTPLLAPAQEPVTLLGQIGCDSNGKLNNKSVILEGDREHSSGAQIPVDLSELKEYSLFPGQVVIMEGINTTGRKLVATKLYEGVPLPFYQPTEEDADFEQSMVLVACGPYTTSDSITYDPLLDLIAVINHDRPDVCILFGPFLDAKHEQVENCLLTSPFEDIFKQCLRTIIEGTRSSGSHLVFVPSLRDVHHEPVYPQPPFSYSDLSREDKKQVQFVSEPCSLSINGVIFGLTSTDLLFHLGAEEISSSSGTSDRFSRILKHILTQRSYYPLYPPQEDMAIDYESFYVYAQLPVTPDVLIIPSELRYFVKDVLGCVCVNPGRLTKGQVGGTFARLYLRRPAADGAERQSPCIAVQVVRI
DNA polymerase α of eukaryotic cells, sequence (P49642 whole entry partner): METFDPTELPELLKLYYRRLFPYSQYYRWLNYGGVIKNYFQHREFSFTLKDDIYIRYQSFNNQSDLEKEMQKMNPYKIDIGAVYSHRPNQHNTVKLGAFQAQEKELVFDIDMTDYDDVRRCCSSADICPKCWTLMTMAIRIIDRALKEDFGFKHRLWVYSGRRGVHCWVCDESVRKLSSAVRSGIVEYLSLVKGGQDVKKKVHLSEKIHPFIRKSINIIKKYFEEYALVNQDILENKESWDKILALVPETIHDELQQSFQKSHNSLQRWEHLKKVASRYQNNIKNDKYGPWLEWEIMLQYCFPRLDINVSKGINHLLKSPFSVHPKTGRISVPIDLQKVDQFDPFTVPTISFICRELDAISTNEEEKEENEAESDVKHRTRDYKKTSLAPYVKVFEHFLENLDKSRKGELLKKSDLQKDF
DNA polymerase α of eukaryotic cells, sequence (P49643 whole entry partner): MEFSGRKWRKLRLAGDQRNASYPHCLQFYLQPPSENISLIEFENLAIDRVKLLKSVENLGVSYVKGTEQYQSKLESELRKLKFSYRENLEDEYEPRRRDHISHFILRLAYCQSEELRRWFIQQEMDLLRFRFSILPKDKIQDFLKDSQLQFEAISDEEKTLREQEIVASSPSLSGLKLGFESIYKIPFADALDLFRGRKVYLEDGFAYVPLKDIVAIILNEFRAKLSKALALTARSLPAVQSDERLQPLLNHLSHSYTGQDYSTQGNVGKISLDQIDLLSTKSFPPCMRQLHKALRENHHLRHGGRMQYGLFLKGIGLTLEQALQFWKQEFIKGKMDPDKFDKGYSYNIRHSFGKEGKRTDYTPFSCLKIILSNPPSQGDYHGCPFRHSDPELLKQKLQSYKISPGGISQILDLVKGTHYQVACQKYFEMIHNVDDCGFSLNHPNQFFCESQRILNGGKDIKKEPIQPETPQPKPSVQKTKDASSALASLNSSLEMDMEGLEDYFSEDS

anesthetized rats [4] = tested on: anesthetized rats
[5] = 50 μg/Kg i.v., 10 to 15 minutes after administration
[6] = 100 μg/Kg i.v., 10 to 15 minutes after administration
[7] = 200 μg/Kg i.v., 10 to 15 minutes after administration

CN1CC[C@]23c4c5ccc(O)c4O[C@H]2[C@@H](O)C=C[C@H]3[C@H]1C5 [morphine]
effect on C-reflex potential (anesthetized cats): selectively suppresses C-reflex potential alone

CCCCCCCCCCCCCCCC(=O)OCC1COP(=O)(O)O1 (stereo not shown) [Pal-cPA]
blood pressure ([1]; after dose of 2 mg/Kg body weight i.v.): 130 mmHg | blood pressure ([1]; dose 300 μg/Kg body weight i.v., brief increase): around 100 mmHg | blood pressure ([1]; dose 2 mg/Kg i.v., thereafter up to 30 minutes after administration): around 130 mmHg | suppressive effect on heart rate increase (anesthetized rats [2]): no consistent tendency could be confirmed; also recorded: not significant

CCCCCC[C@@H]1C[C@@H]1CCCCCCCC(=O)OC[C@@H]1COP(=O)(O)O1 [PHYLPA]
effect on activity of DNA polymerase α [3]: suppresses

CCCCCC/C=C\CCCCCCCC(=O)OCC1CCP(=O)(O)O1 (stereo not shown) [Pal-3 ccPA, palmitoleoyl 3 carba cPA]
decrease in depolarization level of C reflex (anesthetized rats [4]; [5]): approximately 30% | decrease in depolarization level of C reflex (anesthetized rats [4]; [6]): approximately 50% | decrease in depolarization level of C reflex (anesthetized rats [4]; [7]): approximately 60% | change in discharge/depolarization level of cardiac nerves, particularly C reflex (anesthetized rats [4]; anesthetized rats, i.v.): significant decrease | degree of decrease in C reflex depolarization compared with 2 carba derivatives (anesthetized rats [4]; i.v., anesthetized rats): somewhat lower

CCCCCC/C=C\CCCCCCCC(=O)OCC1COP(=O)(O)C1 (stereo not shown) [Pal-2 ccPA, palmitoleoyl 2 carba cPA]
decrease in depolarization level of C reflex (anesthetized rats [4]; [5]): ≥ 30% | decrease in depolarization level of C reflex (anesthetized rats [4]; [6]): approximately 60% | decrease in depolarization level of C reflex (anesthetized rats [4]; [7]): approximately 70% | decrease in depolarization level of C reflex (anesthetized rats [4]; 500 μg/Kg i.v., 10 to 15 minutes after administration): approximately 80% | change in discharge/depolarization level of cardiac nerves, particularly C reflex (anesthetized rats [4]; anesthetized rats, i.v.): significant decrease

CCCCCCCC/C=C\CCCCCCCC(=O)OCC1COP(=O)(O)O1 (stereo not shown) [Ole-cPA, 1-oleoyl cyclic phosphatidic acid]
effects of administration on blood pressure ([1]; anesthetized rats, i.v.): not observed | blood pressure ([1]; dose 2 mg/Kg body weight or less i.v.): ~90 mmHg | decrease in depolarization level of C reflex (anesthetized rats [4]; 2 mg/Kg i.v.): approximately 50% | changes in discharge level of Aδ reflex (anesthetized rats [4]; after administration, compared with C reflex): inconsistent | change in discharge/depolarization level of cardiac nerves, particularly C reflex (anesthetized rats [4]; anesthetized rats, i.v.): decreased | decrease in discharge level of C reflex (anesthetized rats [4]; any concentration, 10 to 15 minutes after administration): approximately 1 mV | decrease in discharge level of C reflex (anesthetized rats [4]; any concentration, 10 to 15 minutes after administration, relative to before administration): up to 40% | decrease in discharge level of C reflex (anesthetized rats [4]; dose 2 mg/Kg, 30 minutes after administration, compared with before administration): approximately 20% | suppressive effect on heart rate increase (anesthetized rats [2]): significantly suppressed; also recorded: significantly observed | heart rate increase compared with control (anesthetized rats [2]; dose 5 mg/Kg body weight i.v.): a half of or lower than that of the control | suppressive effect on heart rate increase after 20 minutes (anesthetized rats [2]; dose 5 mg/Kg i.v., after 20 minutes): significant suppressive effect | duration of the suppressive effect on heart rate increase (anesthetized rats [2]; dose higher than 1 mg/Kg body weight i.v.): ≥ 20 min
